Results reported in patent publication US9629919B2, “Drug delivery of temozolomide for systemic based treatment of cancer” (CEDARS-SINAI MEDICAL CENTER, priority 2009, dated 2017).
Entries after “also recorded” stand apart in the source; their conditions may differ.

Legend:
[1] = physchem; format: physicochemical; settings: buffer, pH 7.4
Procedure: The conjugation reaction of PMLA with PEG, TMZH, LLL and LOEt was followed by thin layer chromatography (TLC) on precoated silica gel 60 F254 aluminum sheets (Merck, Darmstadt, Germany) and visualization of spots by UV light and/or by ninhydrin staining. The concentration of free or conjugated TMZH was monitored by reading A328 and using known amounts of TMZ or TMZH standards. Size exclusion chromatography was performed on LACHROM ELITE, an analytical High Performance Liquid Chromatograph (HPLC) system with Diode Array Detector L 2455 (Hitachi, Pleasanton, Calif., USA), and Mw was measured using BioSep-SEC-S 3000 (300×7.80 mm) (Phenomenex, Torrance, Calif., USA) with 50 mM sodium phosphate buffer pH 6.8 and polystyrene sulfonates as molecular weight standards. Thiol residues attached to PMLA were assayed by the method of Ellman. Enzyme-linked immunosorbent assay (ELISA) was used to determine the functional activity of conjugated antibody using a Protein Detector ELISA Kit (KPL, Inc., Gaithersburg, Mass., USA). Human TfR ectodomain used as antigen was obtained from Protein Expression Center, California Institute of Technology, Pasadena, USA.
TMZ is a prodrug and undergoes spontaneous conversion to the active alkylating agent at neutral or alkaline pH. Half-lives were measured at physiological pH 7.4 in PBS and summarized in Table I. The decomposition of free and conjugated TMZH by hydrolytic ring opening (Chart 1) was a first order reaction for free TMZ or TMZH and conjugated TMZH (data not shown). […] Similar data have been reported for TMZ conjugated with small carbon chains (6). No detectable decomposition was observed during 24 h at pH 5.0 at RT.

[2] = test system: U87MG; test: Cell viability (MTS); format: cell-based, human
Procedure: (§1) Primary glioma cell lines U87MG and T98G, and invasive breast carcinoma cell lines MDA-MB-231 and MDA-MB-468 were obtained from American Type Culture Collection (ATCC, Manassas, Va., USA) USA. U87MG and T98G cells were cultured in MEM supplemented with 10% fetal bovine serum, 1% MEM NEAA, 1 mM sodium pyruvate and 2 mM L-glutamine. For MDA-MB-231 and MDA-MB-468, Leibovitz's L-15 medium with 10% fetal bovine serum was used. Cells were seeded at 10^3 per well (0.1 ml) in 96-well flat-bottomed plates and incubated overnight at 37° C. in humid atmosphere with 5% CO2 (MDA-MB-231 and MDA-MB-468 were incubated without CO2). After exposure to synthesized conjugates for 24 h, medium was replaced every 48 h. Cell viability was measured on day 5 for T98G and day 7 for the rest of the cell lines using the CELLTITER 96 Aqueous One Solution Cell Proliferation Assay kit (Cat. No. PR-G3580; Promega, Madison, Wis., USA). Yellow [3-(4,5-dimethylthiazol-2-yl)-5-(3-carboxymethoxyphenyl)-2-(4-sulfophenyl-)-2H-tetrazolium, inner salt] (MTS) is bioreduced by cells into formazan that is soluble in the tissue culture medium. The absorbance reading at 490 nm from the 96-well plates is directly proportional to the number of living cells (32). The viability of the untreated cells was taken as 100%. The results shown are the means±standard deviation of three independent measurements. Data were analyzed by statistical software GRAPHPAD PRISM 3.0.

[3] = test system: T98G; test: Cell viability (MTS); format: cell-based, human; settings: 24 h exposure, viability on day 5, untreated = 100%
Procedure: as §1

[4] = test system: MDA-MB-468; test: Cell viability (MTS); format: cell-based, human; settings: MDA-MB-468, 24 h exposure, viability on day 7, untreated = 100%
Procedure: as §1

[5] = test system: MDA-MB-231; test: Cell viability (MTS); format: cell-based, human; settings: MDA-MB-231, 24 h exposure, viability on day 7, untreated = 100%
Procedure: as §1

Half-life of TMZ [1] | half-life [1] | Compound | effect on cell viability ([2]; 24 h exposure, viability on day 7, untreated = 100%) | order of increasing potency on cell viability ([2]; FIG. 6a) | effect on cell viability [3] | effect on cell viability [4] | effect on cell viability [5]
1.8 h | 1.8 ± 0.1 h | Cn1nnc2c(C(N)=O)ncn2c1=O [TMZ, temozolomide] | stronger effect on U87MG cells than the nanoconjugates; also recorded: responded | P/PEG(2%)/LLL(40%)/TMZH(17%)/IgG(0.25%)<P/PEG(2%)/LLL(40%)/TMZH(17%)<P/PEG(2%)/LLL(40%)/TMZH(17%)/HuTfR mAb(0.25%)<TMZ | inactive; also recorded: did not change | inactive; also recorded: ineffective at all concentrations below 130 μM; also recorded: did not change | inactive; also recorded: did not change
– | 1.98 ± 0.1 h | Cn1nnc2c(C(=O)NN)ncn2c1=O [TMZH, temozolomide hydrazide] | – | – | – | – | –
